Laboratory results from patent US20130011845A1, “MICRORNA REGULATING THE INSULIN SIGNALING PATHWAY, AND METHOD FOR SCREENING MATERIAL FOR CONTROLLING THE ACTION OF A TARGET THEREOF” (SNU R & DB Foundation, priority 2009, published 2013).

Assays:
FOG2 3′UTR = assay: dual-luciferase 3′UTR reporter assay, pAC-FOG2; type: cell-based; conditions: luciferase reporter with FOG2 3′UTR, human Hela cell lines; average of at least two independent experiments
Description: (§1) In order to determine whether the target genes identified in Example 7 are in actuality targets of miR-8 and miR-200 family miRNAs, the inventors performed cloning. In other words, […] containing the miRNA target sites. Specifically, in order to obtain cDNAs of respective target genes, from drosophila S2 cell lines or human Hela cell lines, total RNA was extracted by using RNeasy mini kit (QIAGEN, US). 1 μg of total RNA and 1 μl of Oligo-dT (Invitrogen, US) were charged with up to 50 μl of distilled water, and placed into SuperScript First-Strand Synthesis System (Invitrogen, US), followed by RT-PCR reaction. Through the reaction at 65° C. for 6 min, at 4° C. for 5 min, at 42° C. for 60 min, at 95° C. for 5 min, and at 4° C. for 5 min, cDNA was synthesized. By using the cDNA (3˜5 μg) as template, and using a primer pair on respective genes noted in Table 3 and PCR Mastermix (Promega, US), PCR was performed on 3′UTR of ush, Lap1, CG8445, dbo, Lar, Ced-12, CG12333, cbt, FOG2, SEPT7, RIN2, SHC1, HOXB5, LF11, TCF7L1, ERBB21P, ELMO2, BAP1, WDR37, KLHL20, PTPRD, RASSF2 and VAC14 from among the target genes selected in Example 7. Herein, PCRP on atro as a drosophila control gene was also performed. After the reaction was completed, the PCR product on each gene's 3′UTR region was cleaved by each of the following restriction enzymes:
(§2) Then, it was cloned into pAC5.1 luciferase vector (a kind gift of Elisa Izaurralde) cleaved by the same restriction enzymes so as to produce a reporter plasmid having a miR-8 or miR-200 family target sequence in luciferase gene's 3′UTR sequence.
(§3) Reporter plasmids and renilla luciferase expression vectors (Promega, US), as noted in Table 4, and miRNAs of miR-200 family of miR-141, miR-200a (hsa-miR-200a, SEQ ID: 87: 5′-[…]-3′), miR-200b, miR-200c (has-miR-200c, SEQ ID: 88: 5′-[…]-3′) and miR-429, and miR-8 (dme-miR-8, SEQ ID: 89: 5′-[…]-3′) were bought from Samchonri and cotransfected into drosophila S2 cell lines or human Hela cell lines. Then, the activities of luciferase were measured through dual-luciferase assay (Promega, US) by a luminometer (Biorad). Then, 7 gene pairs that respond both to miR-8 and to mir-200 family miRNAs in Drosophila and human cells, respectively were identified (see FIG. 15).

PTPRD 3′UTR = assay: dual-luciferase 3′UTR reporter assay, pAC-PTPRD; type: cell-based; conditions: luciferase reporter with PTPRD 3′UTR, human Hela cell lines; average of at least two independent experiments
Description: as §1, §2, §3

KLF11 3′UTR = assay: dual-luciferase 3′UTR reporter assay, pAC-KLF11; type: cell-based; conditions: luciferase reporter with KLF11 3′UTR, human Hela cell lines; average of at least two independent experiments
Description: as §1, §2, §3

TCF7L1 3′UTR = assay: dual-luciferase 3′UTR reporter assay, pAC-TCF7L1; type: cell-based; conditions: luciferase reporter with TCF7L1 3′UTR, human Hela cell lines; average of at least two independent experiments
Description: as §1, §2, §3

SEPT7 3′UTR = assay: dual-luciferase 3′UTR reporter assay, pAC-SEPT7; type: cell-based; conditions: luciferase reporter with SEPT7 3′UTR, human Hela cell lines; average of at least two independent experiments
Description: as §1, §2, §3

RIN2 3′UTR = assay: dual-luciferase 3′UTR reporter assay, pAC-RIN2; type: cell-based; conditions: luciferase reporter with RIN2 3′UTR, human Hela cell lines; average of at least two independent experiments
Description: as §1, §2, §3

SHC1 3′UTR = assay: dual-luciferase 3′UTR reporter assay, pAC-SHC1; type: cell-based; conditions: luciferase reporter with SHC1 3′UTR, human Hela cell lines; average of at least two independent experiments
Description: as §1, §2, §3

VAC14 3′UTR = assay: dual-luciferase 3′UTR reporter assay, pAC-VAC14; type: cell-based; conditions: luciferase reporter with VAC14 3′UTR, human Hela cell lines; average of at least two independent experiments
Description: as §1, §2, §3

FOXO = FOXO luciferase reporter (pFK1tk-luc) assay in Hep3B cells; type: cell-based, human
Text: The inventors analyzed the effect of miR-200 miRNAs on the downstream transducers of Akt (see FIGS. 44 to 47). Because Akt represses FOXO activity, the inventors used a luciferase reporter plasmid (pFK1tk-luc) (Biggs, W H et al., 1999, Proc Natl Acad Sci USA 96, 7421-7426) containing eight FOXO-binding sites to determine the level of FOXO activity in cultured cells. Specifically, Hep3B cells were transfected with synthesized siGFP, miR-141, miR-200a, miR-200b, miR-200c, miR-429 or siFOG2 together with pFK1tk-luc vector, and then luciferase activity was measured in the same manner as described Example 8-2. Also, Hep3B cells were transfected with luciferase, or oligonucleotides having complementary sequence to miR-141, miR-200a, miR-200b, miR-200c or miR-429 together with pFK1tk-luc vector. Then, the luciferase activity was measured in the same manner as described above. Further, Hep3B cell lines were transfected with pCK-flag (empty vector) and pCK-FOG2 produced in Example 16-1, and the luciferase activity was measured in the same manner as described above. […] Further, treating the cells with miR-200 inhibitors elevated FOXO activity (see FIG. 46).

| Substance | Represion fold, FOG2 (FOG2 3′UTR) [fold] | Represion fold, PTPRD (PTPRD 3′UTR) [fold] | Represion fold, KLF11 (KLF11 3′UTR) [fold] | Represion fold, TCF7L1 (TCF7L1 3′UTR) [fold] | Represion fold, SEPT7 (SEPT7 3′UTR) [fold] | Represion fold, RIN2 (RIN2 3′UTR) [fold] | Represion fold, SHC1 (SHC1 3′UTR) [fold] | Represion fold, VAC14 (VAC14 3′UTR) [fold] | FOXO activity (activity of luciferase, pFK1tk-luc) (FOXO) |
| --- | --- | --- | --- | --- | --- | --- | --- | --- | --- |
| 5′-UAACACUGUCUGGUAAAGAUGG-3′ (listed as RNA, chemistry not given here) [miR-141] | 0.59 | 0.89 | 1.03 | 0.91 | 1.00 | 1.10 | 1.64 | 0.99 | significantly repressed |
| 5′-UAACACUGUCUGGUAACGAUGU-3′ (listed as RNA, chemistry not given here) [miR-200a] | 0.64 | 1.25 | 1.20 | 1.17 | 0.97 | 2.49 | 1.63 | 1.19 | significantly repressed |
| 5′-UAAUACUGCCUGGUAAUGAUGA-3′ (listed as RNA, chemistry not given here) [miR-200b] | 0.37 | 0.89 | 1.02 | 0.81 | 0.95 | 1.91 | 1.41 | 1.20 | significantly repressed |
| 5′-UAAUACUGUCUGGUAAAACCGU-3′ (listed as RNA, chemistry not given here) [miR-429] | 0.47 | 0.75 | 1.07 | 0.71 | 1.14 | 1.41 | 2.17 | 1.17 | significantly repressed |
